Among the data in patent US8598217B2, “Imidazole derivatives and their use as modulators of cyclin dependent kinases” (Astex Therapeutics Ltd., priority 2009, dated 2013) are IC50 values, retold here.

What is called IC50 is the point on the concentration scale where inhibition reaches its midpoint.

CDK4/cyclin D1, sequence (P11802 whole entry): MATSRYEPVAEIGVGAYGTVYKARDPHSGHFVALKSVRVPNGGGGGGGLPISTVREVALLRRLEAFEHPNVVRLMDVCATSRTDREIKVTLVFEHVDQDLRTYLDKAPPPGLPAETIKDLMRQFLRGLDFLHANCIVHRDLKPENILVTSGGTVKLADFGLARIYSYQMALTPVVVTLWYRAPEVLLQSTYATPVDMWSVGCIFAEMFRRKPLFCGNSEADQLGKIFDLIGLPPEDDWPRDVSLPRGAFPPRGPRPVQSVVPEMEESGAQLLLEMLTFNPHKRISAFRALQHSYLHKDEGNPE
CDK4/cyclin D1, sequence (P24385 whole entry partner): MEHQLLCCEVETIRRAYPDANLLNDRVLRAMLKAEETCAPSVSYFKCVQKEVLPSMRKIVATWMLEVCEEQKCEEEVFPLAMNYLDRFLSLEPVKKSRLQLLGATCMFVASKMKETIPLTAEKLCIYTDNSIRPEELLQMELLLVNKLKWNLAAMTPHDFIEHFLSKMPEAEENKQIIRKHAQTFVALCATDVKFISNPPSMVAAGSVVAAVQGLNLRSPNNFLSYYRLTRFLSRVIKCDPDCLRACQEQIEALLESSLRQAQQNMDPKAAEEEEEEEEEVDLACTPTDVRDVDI

The first assay deals with CDK4/cyclin D1 (Homo sapiens (Human), UniProt P11802). Description: CDK4/cyclin D1 enzymatic activity assay (Protocol A, Lance TR-FRET). Type of assay: biochemical. The conditions noted are these: CDK4/cyclin D1, 175 nM pRb152, 3 μM ATP, 60 min, room temperature; read-out: IC50 against CDK4 kinase. How it is done:
A 384-well microtiter Lance TR-FRET (time-resolved-fluorescence energy transfer) endpoint assay was used for CDK4/cyclin D1 kinase activity measurements. The same assay was used for IC50 determination of small molecule inhibitors. In general, the kinase reactions were carried out in 30 μL volumes in the reaction solution containing the following: 2 μL compound (in 20% DMSO), 18 uL CDK4/cyclin D1 in Assay Buffer (50 mM HEPES, pH 7.5, 5 mM MgCl2, 2 mM MnCl2, 1 mM DTT, 0.05% BSA, 0.02% Tween-20), 10 μL of the mixture of pRb152 and ATP. The final reaction mixture contains compound (inhibitor) with the concentration varying from […], 2% DMSO, 0.3 nM CDK4/cyclin D1, 175 nM pRb152, and 3 μM ATP (Amersham Pharmacia, Cat. No. 27-2056-01). All reactions were run at room temperature in 384-well white flat-bottom OptiPlates (Perkin Elmer, Cat. No. 6007290) for 60 min then were quenched by the addition of 10 μL of 120 mM EDTA. The signals were captured by the addition of 40 μL of the Detection Solution containing the following: Detection Buffer (50 mM HEPES, pH 7.5, 30 mM EDTA, 0.1% Triton x-100, 0.05% BSA), 70 ng/mL anti-phospho-pRb(S780) (Cell Signaling Technology, Cat. No. 9307S), 1 nM Lance Eu-W1024-Rabbit anti-IgG (Perkin Elmer, Cat. No. AD0082), and 20 nM SureLight™ Allophycocyanin-Streptavidin (Perkin Elmer, Cat. No. CR130-100). The resulted solutions were incubated at room temperature for 2 hours before read on the Evision Multilabel Reader (Perkin Elmer, Envision 2102-0010). Note: IC50<0.005 nM or IC50>10 μM indicates the true IC50 is out of detection range.
CDK4/cyclin D1 recombinant protein used in the enzymatic activity assay was prepared by coexpressing pDEST10-CDK4 (N-terminal His6) and pFastBacDual-GST-hCyclinD1 viruses in Sf21 cells. The overexpressed protein was purified by Ni-NTA affinity pull down to >80% pure by Sizing HPLC.
In the case of `CN(C)C1CCN(c2ccc3nc(C(=O)c4ccnc(-c5cncc6ccccc56)c4)[nH]c3n2)CC1` [Example 135, [5-(4-Dimethylamino-piperidin-1-yl)-3H-imidazo[4,5-b]pyridin-2-yl]-(2-isoquinolin-4-yl-pyridin-4-yl)-methanone], the IC50 amounted to 12 nM.
Take `CN(C)C1CCN(c2ccc3nc(C(=O)c4ccc(C#N)c(-c5cncc6[nH]ccc56)c4)[nH]c3n2)CC1` [Example 140, 4-[5-(4-Dimethylamino-piperidin-1-yl)-3H-imidazo[4,5-b]pyridine-2-carbonyl]-2-(1H-pyrrolo[2,3-c]pyridin-4-yl)-benzonitrile]: the IC50 amounted to 4 nM.
As to `COc1ccc(F)c(F)c1-c1cc(C(=O)c2nc3ccc(N4CCC(N(C)C)CC4)nc3[nH]2)ccn1` [Example 148, [5-(4-dimethylamino-piperidin-1-yl)-3H-imidazo[4,5-b]pyridin-2-yl]-[2-(2,3-difloro-6-methoxy-phenyl)-pyridin-4-yl]-methanone], the IC50 amounted to 67 nM.
In the case of `O=C(c1ccnc(-c2cncc3ccccc23)c1)c1nc2ccc(N3CCCNCC3)nc2[nH]1` [Example 163, (5-[1,4]Diazepan-1-yl-3H-imidazo[4,5-b]pyridine-2-yl)-(2-isoquinolin-4-yl-pyridin-4-yl)-methanone], the IC50 is 14 nM.
On the same count and under the same terms, then `O=C(c1ccnc(-c2cncc3ccccc23)c1)c1nc2ccc(N3CCNCC3)nc2[nH]1` [Example 164], with 24 nM; and `CN(C)C1CCN(c2ccc3nc(C(=O)c4ccc(C#N)c(-c5cncc6ccccc56)c4)[nH]c3n2)CC1` [Example 165, 4-[5-(4-Dimethylamino-piperidin-1-yl)-3H-imidazo[4,5-b]pyridine-2-carbonyl]-2-isoquinolin-4-yl-benzonitrile], with 3 nM; and `N#Cc1ccc(C(=O)c2nc3ccc(N4CCNCC4)nc3[nH]2)cc1-c1cncc2ccccc12` [Example 166, 2-Isoquinolin-4-yl-4-(5-piperazin-1-yl-3H-imidazo[4,5-b]pyridine-2-carbonyl)-benzonitrile], with 8 nM.
With `Cc1n[nH]c(C)c1-c1cc(C(=O)c2nc3ccc(N4CCC(N(C)C)CC4)nc3[nH]2)ccn1` [Example 167, [5-(4-Dimethylamino-piperidin-1-yl)-3H-imidazo[4,5-b]pyridine-2-yl]-[2-(3,5-dimethyl-1H-pyrazol-4-yl)-pyridin-4-yl]-methanone], the IC50 was determined as 195 nM.
Same read-out and setting: then `Cc1n[nH]c(C)c1-c1cc(C(=O)c2nc3ccc(N4CCNCC4)nc3[nH]2)ccn1` [Example 169, [2-(3,5-Dimethyl-1H-pyrazol-4-yl)-pyridin-4-yl]-(5-piperazin-1-yl-3H-imidazo[4,5-b]pyridine-2-yl)-methanone], with 260 nM; and `Cc1n[nH]c(C)c1-c1cc(C(=O)c2nc3ccc(N4CCCNCC4)nc3[nH]2)ccn1` [Example 170, (5-[1,4]Diazepan-1-yl-3H-imidazo[4,5-b]-pyridin-2-yl)-[2-(3,5-dimethyl-1H-pyrazol-4-yl)-pyridin-4-yl]-methanone], with 548 nM.
Regarding `Cc1nn(C)c(C)c1-c1cc(C(=O)c2nc3ccc(N4CCC(N(C)C)CC4)nc3[nH]2)ccc1C#N` [Example 173, 4-[5-(4-Dimethylamino-piperidin-1-yl)-3H-imidazo[4,5-b]pyridine-2-carbonyl]-2-(1,3,5-trimethyl-1H-pyrazol-4-yl)-benzonitrile], the IC50 came out at 12 nM.
On the same count and under the same terms, then `Cc1ncc2ccccc2c1-c1cc(C(=O)c2nc3cc(C(=O)N4CCNCC4)ccc3[nH]2)ccc1C#N` [Example 174, 2-(3-Methyl-isoquinolin-4-yl)-4-[5-(piperazine-1-carbonyl)-1H-benzoimidazole-2-carbonyl]-benzonitrile], with 5 nM.
Regarding `O=C(c1ccnc(-c2cncc3ccccc23)c1)c1nc2ccc(S(=O)(=O)N3CCNCC3)cc2[nH]1` [Example 182, (2-Isoquinolin-4-yl-pyridin-4-yl)-[6-(piperazine-1-sulfonyl)-1H-benzoimidazol-2-yl]-methanone], the IC50 was found to be 77 nM.
On the same count and under the same terms, in the case of `Cc1nn(C)c(C)c1-c1cc(C(=O)c2nc3ccc(N4CCNCC4)nc3[nH]2)ccc1C#N` [Example 189, 4-(5-piperazin-1-yl-3H-imidazo[4,5-b]pyridine-2-carbonyl)-2-(1,3,5-trimethyl-1H-pyrazol-4-yl)-benzonitrile] it was 95 nM.

The assay is the same for the next values; noted with them: CDK4/cyclin D1, 175 nM pRb152, 3 μM ATP; bound stated; read-out: IC50 values against CDK4.
With `Cc1cc(F)ncc1-c1cc(C(=O)c2nc3ccc(N4CCC(N(C)C)CC4)cc3[nH]2)ccn1` [Example 119, [6-(4-Dimethylamino-piperidin-1-yl)-1H-benzoimidazol-2-yl]-(6′-fluoro-4′-methyl-[2,3′]bipyridinyl-4-yl)-methanone], the IC50 was less than 10000 nM.
Still for that read-out and setting: then `CNS(=O)(=O)c1ccccc1-c1cc(C(=O)c2nc3ccc(N4CCC(N(C)C)CC4)cc3[nH]2)ccn1` [Example 120, 2-{4-[6-(4-Dimethylamino-piperidin-1-yl)-1H-benzoimidazole-2-carbonyl]-pyridin-2-yl}-N-methyl-benzenesulfonamide], with less than 10000 nM.
Turning to `Cc1n[nH]c(C)c1-c1cc(C(=O)c2nc3ccc(N4CCC(N(C)C)CC4)cc3[nH]2)ccn1` [Example 129, [6-(4-Dimethylamino-piperidin-1-yl)-1H-benzoimidazol-2-yl]-[2-(3,5-dimethyl-1H-pyrazol-4-yl)-pyridin-4-yl]-methanone], the IC50 is less than 10000 nM.
Same read-out and setting: in the case of `CN(C)C1CCN(c2ncc3nc(C(=O)c4ccnc(-c5cncc6ccccc56)c4)[nH]c3n2)CC1` [Example 133, [2-(4-Dimethylamino-piperidin-1-yl)-9H-purin-8-yl]-(2-isoquinolin-4-yl-pyridin-4-yl)-methanone] it was less than 10000 nM; in that of `CN(C)C1CCN(c2ccc3nc(C(=O)c4ccnc(-c5cncc6ccccc56)c4)[nH]c3n2)CC1` [Example 135, [5-(4-Dimethylamino-piperidin-1-yl)-3H-imidazo[4,5-b]pyridin-2-yl]-(2-isoquinolin-4-yl-pyridin-4-yl)-methanone], less than 10000 nM.
As for `COc1ccc(F)c(F)c1-c1cncc(C(=O)c2nc3cc(CN(C)C)ccc3[nH]2)c1` [Example 159, [5-(2,3-Difluoro-6-methoxy-phenyl)-pyridin-3-yl]-(5-dimethylaminomethyl-1H-benzoimidazol-2-yl)-methanone], the IC50 is less than 10000 nM.
`Cc1nn(C)c(C)c1-c1cc(C(=O)c2nc3ccc(OC4CCNC4)nc3[nH]2)ccc1C#N` (centres unmarked) [Example 160, 4-[5-(Pyrrolidin-3-yloxy)-3H-imidazo[4,5-b]pyridine-2-carbonyl]-2-(1,3,5-trimethyl-1H-pyrazol-4-yl)-benzonitrile]: the IC50 is less than 10000 nM.
As for `Cc1nn(C)c(C)c1-c1cc(C(=O)c2nc3ccc(N4CC5(CNC5)C4)nc3[nH]2)ccc1C#N` [Example 207, 4-[5-(2,6-Diaza-spiro[3.3]hept-2-yl)-3H-imidazo[4,5-b]pyridine-2-carbonyl]-2-(1,3,5-trimethyl-1H-pyrazol-4-yl)-benzonitrile], the IC50 is less than 10000 nM.
For the molecule `Cc1nn(C)c(C)c1-c1cc(C(=O)c2nc3ccc(N4CCNC(C)(C)C4=O)nc3[nH]2)ccc1C#N` [Example 209, 4-[5-(3,3-Dimethyl-2-oxo-piperazin-1-yl)-3H-imidazo[4,5-b]pyridine-2-carbonyl]-2-(1,3,5-trimethyl-1H-pyrazol-4-yl)-benzonitrile], the IC50 is less than 10000 nM.
